Active and inactive are the calls of the source. The calls are words filed in the database; no cut-off is given here.
Columns and labels:
Cell membrane [1] = test: Disruption of cell membrane in methicillin-resistant Staphylococcus aureus clinical isolate 16 assessed as appearance of broken surface at 16 ug/ml measured after 4 hrs by SEM analysis; assay type: cell membranes; details: dose 16.0 µg/ml
Staphylococcus aureus [2] = test: Antibacterial activity against methicillin-resistant Staphylococcus aureus clinical isolate 13 measured after 18 hrs by CLSI based broth microdilution method; assay type: functional
[3] = Cytotoxicity in human L02 cells assessed as survival rate at 16 ug/ml measured after 24 hrs by CCK-8 method relative to control; assay type: toxicity, cell-based; details: at 16 µg/mL, read-out: Survival
Staphylococcus aureus [4] = test: Antibacterial activity against methicillin-resistant Staphylococcus aureus clinical isolate 16 infected in female KM mouse skin abscess model assessed as reduction in inflammatory cells at 5 to 10 mg/kg, sc measured after 24 hrs by H and E staining based analysis; assay type: functional, organism-based; details: dose 5-10 mg/kg
Cell membrane [5] = test: Induction of cell membrane disruption in methicillin-resistant Staphylococcus aureus clinical isolate 16 assessed as intact cells (Q3 region) at 16 ug/ml measured after 2 hrs by SYTO-9 and PI staining based flow cytometry analysis (reference value: 96.0%); assay type: cell membranes; details: dose 16.0 µg/ml
Staphylococcus aureus [6] = test: Antibacterial activity against methicillin-resistant Staphylococcus aureus clinical isolate 16 infected in female KM mouse skin abscess model assessed as reduction in infiltration of inflammatory cells in subcutaneous tissue at 10 mg/kg, sc measured after 24 hrs by H and E staining based analysis; assay type: functional, organism-based
Cell membrane [7] = test: Induction of cell membrane disruption in methicillin-resistant Staphylococcus aureus clinical isolate 16 assessed as dead cells (Q1 region) at 4 ug/ml measured after 2 hrs by SYTO-9 and PI staining based flow cytometry analysis (reference value: 0%); assay type: cell membranes; details: dose 4.0 µg/ml
Cell membrane [8] = test: Induction of cytoplasmic membrane depolarization in methicillin-resistant Staphylococcus aureus clinical isolate 16 assessed as fold increase in fluorescence intensity at 32 time MIC measured after 35 mins by DiSC3-5 dye based fluorescence method
Staphylococcus aureus [9] = test: Antibacterial activity against Staphylococcus aureus ATCC 29213 measured after 18 hrs by CLSI based broth microdilution method; assay type: functional
Cell membrane [10] = test: Induction of cell membrane disruption in methicillin-resistant Staphylococcus aureus clinical isolate 16 assessed as dead cells (Q1 region) at 64 ug/ml measured after 2 hrs by SYTO-9 and PI staining based flow cytometry analysis (reference value: 0%); assay type: cell membranes; details: dose 64.0 µg/ml
[11] = Toxicity in female KM mouse assessed as effect on histopathological abnormalities in lungs at 20 mg/kg, sc measured after 24 hrs by H and E staining based analysis; assay type: organism-based; details: in vivo
Staphylococcus aureus [12] = test: Antibacterial activity against methicillin-resistant Staphylococcus aureus clinical isolate 16 infected in female KM mouse skin abscess model assessed as effect on skin lesions at 10 mg/kg, sc measured after 24 hrs; assay type: functional, organism-based
Staphylococcus aureus [13] = test: Antibacterial activity against methicillin-resistant Staphylococcus aureus clinical isolate 16 infected in female KM mouse skin abscess model assessed as reduction in number of MRSA cells at 5 to 10 mg/kg, sc measured after 24 hrs; assay type: functional, organism-based; details: dose 5-10 mg/kg
[14] = Stability in 50% sheep blood plasma measured after 6 hrs; assay type: ADME, cell-free, Ovis aries
[15] = Toxicity in female KM mouse assessed as effect on platelet count at upto 20 mg/kg, sc measured after 24 hrs; assay type: organism-based; details: in vivo
[16] = Toxicity in female KM mouse assessed as effect on hemoglobin at upto 20 mg/kg, sc measured after 24 hrs; assay type: organism-based; details: in vivo
[17] = Toxicity in female KM mouse assessed as effect on spleen at 20 mg/kg, sc measured after 24 hrs by H and E staining based analysis; assay type: organism-based; details: in vivo
[18] = Toxicity in female KM mouse assessed as survival at 80 mg/kg, sc measured after 24 hrs; assay type: organism-based; details: in vivo
Staphylococcus aureus [19] = test: Antibacterial activity against methicillin-resistant Staphylococcus aureus clinical isolate 16 infected in female KM mouse skin abscess model assessed as reduction in infiltration of inflammatory cells in dermis at 10 mg/kg, sc measured after 24 hrs by H and E staining based analysis; assay type: functional, organism-based
Cell membrane [20] = test: Disruption of cell membrane in methicillin-resistant Staphylococcus aureus clinical isolate 16 assessed as appearance of uneven surface at 16 ug/ml measured after 4 hrs by SEM analysis; assay type: cell membranes; details: dose 16.0 µg/ml
[21] = Toxicity in female KM mouse skin abscess model infected with methicillin-resistant Staphylococcus aureus clinical isolate 16 assessed as effect on liver at 5 to 10 mg/kg, sc measured after 24 hrs by H and E staining based analysis; assay type: organism-based; details: in vivo, dose 5-10 mg/kg
Cell membrane [22] = test: Disruption of cell membrane in methicillin-resistant Staphylococcus aureus clinical isolate 16 assessed as fold increase in intracellular ROS level at 64 ug/ml incubated for 50 mins by DCFH-DA staining based fluorescence assay; assay type: cell membranes; details: dose 64.0 µg/ml
[23] = Toxicity in female KM mouse assessed as effect on mean corpuscular volume at upto 20 mg/kg, sc measured after 24 hrs; assay type: organism-based; details: in vivo
Staphylococcus aureus [24] = test: Antibacterial activity against methicillin-resistant Staphylococcus aureus clinical isolate 16 infected in female KM mouse skin abscess model assessed as effect on abscess in intradermal tissue at 5 mg/kg, sc measured after 24 hrs; assay type: functional, organism-based
Staphylococcus aureus [25] = test: Antibacterial activity against methicillin-resistant Staphylococcus aureus clinical isolate 16 measured after 18 hrs by CLSI based broth microdilution method; assay type: functional
Staphylococcus aureus [26] = test: Antibacterial activity against methicillin-resistant Staphylococcus aureus clinical isolate 12 measured after 18 hrs by CLSI based broth microdilution method; assay type: functional
Staphylococcus aureus [27] = test: Antibacterial activity against methicillin-resistant Staphylococcus aureus clinical isolate 16 measured after 18 hrs in presence of phosphatidylethanolamine by checkerboard broth dilution method; assay type: functional, organism-based
Cell membrane [28] = test: Induction of cytoplasmic membrane permeabilization in methicillin-resistant Staphylococcus aureus clinical isolate 16 assessed as fold increase in fluorescence intensity at 32 time MIC measured after 35 mins by SYTOX green dye based fluorescence analysis
[29] = Toxicity in female KM mouse assessed as redness in skin at 40 to 80 mg/kg, sc measured after 24 hrs; assay type: organism-based; details: in vivo, dose 40-80 mg/kg
Staphylococcus aureus [30] = test: Antibacterial activity against methicillin-resistant Staphylococcus aureus clinical isolate 16 infected in female KM mouse skin abscess model assessed as reduction in bacterial load at 5 mg/kg, sc measured after 24 hrs relative to control; assay type: functional; design: scale not given: the % may be the effect or the level left
[31] = Toxicity in female KM mouse assessed as effect on heart at 20 mg/kg, sc measured after 24 hrs by H and E staining based analysis; assay type: organism-based; details: in vivo
Staphylococcus aureus [32] = test: Bactericidal activity against Staphylococcus aureus ATCC 29213 assessed as eradication of bacteria at 8 times MIC measured after 4 hrs by time-kill assay relative to control; assay type: functional
Staphylococcus aureus [33] = test: Antibacterial activity against methicillin-resistant Staphylococcus aureus clinical isolate 16 infected in female KM mouse skin abscess model assessed as effect on abscess in back skin at 5 mg/kg, sc measured after 24 hrs; assay type: functional, organism-based
Staphylococcus aureus [34] = test: Antibacterial activity against Staphylococcus aureus ATCC 29213 at sub-MIC concentration measured after 20 passages by CLSI micro broth dilution method; assay type: functional, organism-based
[35] = Toxicity in female KM mouse assessed as effect on white blood cell at upto 20 mg/kg, sc measured after 24 hrs; assay type: organism-based; details: in vivo
Staphylococcus aureus [36] = test: Antibacterial activity against methicillin-resistant Staphylococcus aureus clinical isolate 16 infected in female KM mouse skin abscess model assessed as smooth skin on back at 10 mg/kg, sc measured after 24 hrs; assay type: functional, organism-based

Compound: CCCCCCNC(=O)C[N+](C)(C)CCCCCOc1ccc2ccc(=O)oc2c1CC=C(C)C.[Br-]
- Activity (Cell membrane [1]): Active
- MIC (Staphylococcus aureus [2]): 2 µg/mL
- viability at 24 h, 16 ug/ml [3]: 60%
- Activity (Staphylococcus aureus [4]): Active
- Activity (Cell membrane [5]): 1.1%
- Activity (Staphylococcus aureus [6]): Active
- Activity (Cell membrane [7]): 0.12%
- fold change (FC) (Cell membrane [8]): 5
- MIC (Staphylococcus aureus [9]): 1 µg/mL
- Activity (Cell membrane [10]): 96.2%
- Activity [11]: Non-Toxic
- Activity (Staphylococcus aureus [12]): inactive
- Activity (Staphylococcus aureus [13]): Active
- Stability [14]: Stable
- Activity [15]: Non-Toxic
- Activity [16]: Non-Toxic
- Activity [17]: Non-Toxic
- Activity [18]: Non-Toxic
- Activity (Staphylococcus aureus [19]): Active
- Activity (Cell membrane [20]): Active
- Activity [21]: Non-Toxic
- fold change (FC) (Cell membrane [22]): 7
- Activity [23]: Non-Toxic
- Activity (Staphylococcus aureus [24]): Active
- MIC (Staphylococcus aureus [25]): 1 µg/mL
- MIC (Staphylococcus aureus [26]): 2 µg/mL
- Activity (Staphylococcus aureus [27]): Active
- fold change (FC) (Cell membrane [28]): 50
- Activity [29]: Toxic
- Activity (Staphylococcus aureus [30]): 99.86%
- Activity [31]: Non-Toxic
- Activity (Staphylococcus aureus [32]): 100%
- Activity (Staphylococcus aureus [33]): Active
- Activity (Staphylococcus aureus [34]): inactive
- Activity [35]: Non-Toxic
- Activity (Staphylococcus aureus [36]): Active
